Source: patent US7138361B2, “Herbicidal heterocycles” (E. I. du Pont de Nemours and Company, priority 2000, dated 2006)

Tests used:
Type in all cases: in vivo
[1] = tested on: blackgrass (Alopecurus myosuroides); experiment: Test B postemergence; settings: 13 to 15 days
In short: (§1)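 Post-treatment, species sat 13–15 days under greenhouse conditions before visual scoring against controls, 0 (no effect) through 100 (complete control). Application preemergence to sown seeds or postemergence at 1- to 4-leaf stage, using a non-phytotoxic solvent/surfactant formulation.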

[2] = tested on: giant foxtail (Setaria faberii); experiment: Test B postemergence; settings: 13 to 15 days
In short: as §1

[3] = tested on: wild oat (Avena fatua); experiment: Test B postemergence; settings: Rate 500 g/ha, scale 0 to 100, 0 is no effect, 100 is complete control, 13 to 15 days
In short: as §1

[4] = tested on: barnyardgrass (Echinochloa crus-galli); experiment: Test B postemergence; settings: 13 to 15 days
In short: as §1

[5] = tested on: wheat (Triticum aestivum); experiment: Test B postemergence; settings: Rate 500 g/ha, scale 0 to 100, 0 is no effect, 100 is complete control, 13 to 15 days
In short: as §1

[6] = tested on: morning glory (Ipomoea hederacea); experiment: Test B postemergence; settings: Rate 500 g/ha, scale 0 to 100, 0 is no effect, 100 is complete control, 13 to 15 days
In short: as §1

[7] = tested on: velvetleaf (Abutilon theophrasti); experiment: Test B postemergence; settings: Rate 500 g/ha, scale 0 to 100, 0 is no effect, 100 is complete control, 13 to 15 days
In short: as §1

[8] = tested on: Surinam grass (Brachiaria decumbens); experiment: Test B postemergence; settings: 13 to 15 days
In short: as §1

[9] = tested on: cocklebur (Xanthium strumarium); experiment: Test B postemergence; settings: 13 to 15 days
In short: as §1

[10] = tested on: pigweed (Amaranthus retroflexus); experiment: Test B postemergence; settings: Rate 500 g/ha, scale 0 to 100, 0 is no effect, 100 is complete control, 13 to 15 days
In short: as §1

[11] = tested on: corn (Zea mays); experiment: Test B postemergence; settings: 13 to 15 days
In short: as §1

[12] = tested on: crabgrass (Digitaria sanguinalis); experiment: Test B postemergence; settings: 13 to 15 days
In short: as §1

[13] = tested on: lambsquarters (Chenopodium album); experiment: Test B postemergence; settings: Rate 500 g/ha, scale 0 to 100, 0 is no effect, 100 is complete control, 13 to 15 days
In short: as §1

[14] = tested on: smallflower flatsedge (Cyperus difformis); experiment: Test C flooded paddy test; settings: for Flatsedge plant response rating: Flooded Paddy, scale 0 to 100, 0 no effect, 100 complete control; for Plant response rating, Flatsedge: flooded paddy test, scale 0 to 100 (0 no effect, 100 complete control)
In short: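 2-leaf-stage plants, flooded paddy; treated; greenhouse 12–14 days; compared with controls by eye; rated 0–100 (0 none, 100 complete control).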

[15] = tested on: giant foxtail (Setaria faberii); experiment: Test B preemergence
In short: as §1

[16] = tested on: barnyardgrass (Echinochloa crus-galli); experiment: Test B preemergence
In short: as §1

[17] = tested on: morning glory (Ipomoea hederacea); experiment: Test B preemergence
In short: as §1

[18] = tested on: velvetleaf (Abutilon theophrasti); experiment: Test B preemergence
In short: as §1

[19] = tested on: rice (Oryza saliva); experiment: Test B preemergence
In short: as §1

[20] = tested on: Surinam grass (Brachiaria decumbens); experiment: Test B preemergence
In short: as §1

[21] = tested on: cocklebur (Xanthium strumarium); experiment: Test B preemergence
In short: as §1

[22] = tested on: pigweed (Amaranthus retroflexus); experiment: Test B preemergence
In short: as §1

[23] = tested on: corn (Zea mays); experiment: Test B preemergence
In short: as §1

[24] = tested on: crabgrass (Digitaria sanguinalis); experiment: Test B preemergence
In short: as §1

[25] = tested on: lambsquarters (Chenopodium album); experiment: Test B preemergence
In short: as §1

[26] = Rate 125 g/ha, scale 0 (no effect) to 100 (complete control)
[27] = Rate 500 g/ha, scale 0 to 100, 0 is no effect, 100 is complete control
[28] = Preemergence, Rate 500 g/ha, scale 0 to 100, 0 no effect, 100 complete control
[29] = preemergence, Rate 125 g/ha, scale of 0 to 100 where 0 is no effect and 100 is complete control, 13 to 15 days

For `CCCC(C)c1ccn(C2SCN(c3cccc(OC(F)(F)F)c3)C2=O)n1` (centres unmarked) [Compound 90], the “Plant response rating, Blackgrass” value [1, 26] was 0, the “Plant response rating, Blackgrass” value [1, 27] was 0 and the “Plant response rating, Foxtail, Giant” value [2, 26] was 0. The “Plant response rating, Foxtail, Giant” value [2, 27] was 40, the “Plant response rating, Wild Oat” value [3] was 20 and the “Plant response rating, Barnyardgrass” value [4, 26] was 20. For the same compound, the “Plant response rating, Barnyardgrass” value [4, 27] was 80, the “Plant response rating, Wheat” value [5] was 0 and the “Plant response rating, Morningglory” value [6] was 70. For the same compound, the “Plant response rating, Velvetleaf” value [7] was 40, the “Plant response rating, Surinam grass” value [8, 26] was 0 and the “Plant response rating, Surinam grass” value [8, 27] was 30. The “Plant response rating, Cocklebur” value [9, 26] was 20, the “Plant response rating, Cocklebur” value [9, 27] was 60 and the “Plant response rating, Pigweed” value [10] was 90. For the same compound, the “Plant response rating, Corn” value [11, 26] was 0, the “Plant response rating, Corn” value [11, 27] was 10 and the “Plant response rating, Crabgrass” value [12, 26] was 20. The “Plant response rating, Crabgrass” value [12, 27] was 50, the “Plant response rating, Lambsquarters” value [13] was 100 and the “Flatsedge plant response rating” value ([14]; Rate 250 g/ha) was 100. For the same compound, the “Flatsedge plant response rating” value ([14]; Rate 500 g/ha) was 100, the “Plant response rating, Flatsedge” value ([14]; Rate 62 g/ha) was 100 and the “Plant response rating, Flatsedge” value ([14]; Rate 125 g/ha) was 100. The “Plant response rating, Foxtail, Giant” value [15, 28] was 100, the “Plant response rating, Foxtail, Giant” value [15, 29] was 80 and the “Plant response rating, Barnyardgrass” value [16, 28] was 100. For the same compound, the “Plant response rating, Barnyardgrass” value [16, 29] was 50, the “Plant response rating, Morningglory” value [17, 28] was 0 and the “Plant response rating, Morningglory” value [17, 29] was 0. For the same compound, the “Plant response rating, Velvetleaf” value [18, 28] was 0, the “Plant response rating, Velvetleaf” value [18, 29] was 0 and the “Plant response rating, Rice” value [19, 28] was 0. For the same compound, the “Plant response rating, Rice” value [19, 29] was 0, the “Plant response rating, Surinam grass” value [20, 28] was 80 and the “Plant response rating, Surinam grass” value [20, 29] was 20. For the same compound, the “Plant response rating, Cocklebur” value [21, 28] was 0, the “Plant response rating, Cocklebur” value [21, 29] was 0 and the “Plant response rating, Pigweed” value [22, 28] was 100. The “Plant response rating, Pigweed” value [22, 29] was 80, the “Plant response rating, Corn” value [23, 28] was 20 and the “Plant response rating, Corn” value [23, 29] was 0. For the same compound, the “Plant response rating, Crabgrass” value [24, 28] was 100, the “Plant response rating, Crabgrass” value [24, 29] was 90 and the “Plant response rating, Lambsquarters” value [25, 28] was 100. The “Plant response rating, Lambsquarters” value [25, 29] was 100.
With `CCOc1cc(N2CCC(n3ccc(C(C)(C)C)n3)C2=O)ccc1C` (centres unmarked) [Compound 106] the “Plant response rating, Blackgrass” value [1, 26] was 0, the “Plant response rating, Blackgrass” value [1, 27] was 0 and the “Plant response rating, Foxtail, Giant” value [2, 26] was 0. The “Plant response rating, Foxtail, Giant” value [2, 27] was 0, the “Plant response rating, Wild Oat” value [3] was 0 and the “Plant response rating, Barnyardgrass” value [4, 26] was 0. For the same compound, the “Plant response rating, Barnyardgrass” value [4, 27] was 0, the “Plant response rating, Wheat” value [5] was 0 and the “Plant response rating, Morningglory” value [6] was 100. The “Plant response rating, Velvetleaf” value [7] was 80, the “Plant response rating, Surinam grass” value [8, 26] was 0 and the “Plant response rating, Surinam grass” value [8, 27] was 0. For the same compound, the “Plant response rating, Cocklebur” value [9, 26] was 90, the “Plant response rating, Cocklebur” value [9, 27] was 90 and the “Plant response rating, Pigweed” value [10] was 90. For the same compound, the “Plant response rating, Corn” value [11, 26] was 0, the “Plant response rating, Corn” value [11, 27] was 0 and the “Plant response rating, Crabgrass” value [12, 26] was 0. For the same compound, the “Plant response rating, Crabgrass” value [12, 27] was 0, the “Plant response rating, Lambsquarters” value [13] was 100 and the “Flatsedge plant response rating” value ([14]; Rate 250 g/ha) was 100. For the same compound, the “Flatsedge plant response rating” value ([14]; Rate 500 g/ha) was 100, the “Plant response rating, Flatsedge” value ([14]; Rate 62 g/ha) was 80 and the “Plant response rating, Flatsedge” value ([14]; Rate 125 g/ha) was 90. The “Plant response rating, Foxtail, Giant” value [15, 28] was 60, the “Plant response rating, Foxtail, Giant” value [15, 29] was 40 and the “Plant response rating, Barnyardgrass” value [16, 28] was 100. The “Plant response rating, Barnyardgrass” value [16, 29] was 90, the “Plant response rating, Morningglory” value [17, 28] was 100 and the “Plant response rating, Morningglory” value [17, 29] was 100. The “Plant response rating, Velvetleaf” value [18, 28] was 100, the “Plant response rating, Velvetleaf” value [18, 29] was 0 and the “Plant response rating, Rice” value [19, 28] was 100. The “Plant response rating, Rice” value [19, 29] was 0, the “Plant response rating, Surinam grass” value [20, 28] was 100 and the “Plant response rating, Surinam grass” value [20, 29] was 100. For the same compound, the “Plant response rating, Cocklebur” value [21, 28] was 100, the “Plant response rating, Cocklebur” value [21, 29] was 30 and the “Plant response rating, Pigweed” value [22, 28] was 100. For the same compound, the “Plant response rating, Pigweed” value [22, 29] was 100, the “Plant response rating, Corn” value [23, 28] was 30 and the “Plant response rating, Corn” value [23, 29] was 30. The “Plant response rating, Crabgrass” value [24, 28] was 100, the “Plant response rating, Crabgrass” value [24, 29] was 100 and the “Plant response rating, Lambsquarters” value [25, 28] was 100. For the same compound, the “Plant response rating, Lambsquarters” value [25, 29] was 100.
